This is an account of results in patent US20170008888A1 (KYORIN PHARMACEUTICAL CO., LTD., priority 2014, published 2017).

Molecules are shown by their SMILES.

For one assay, the system named is human PBMCs. Description: Human PBMC TNF-α response to endotoxin (ELISA). As to conditions: 0.1 μg/ml LPS 16 h, read-out: EC50 for the inhibition of the human PBMC TNF-α response to endotoxin, ave. ± S.D. The assay is classed as cell-based. An outline of the steps: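 PBMCs at 2e6 cells/ml in RPMI 1640 with 10% charcoal-dextran-treated FBS were pre-treated 1 h at 37 °C with compound (4-point 1:5 dilution from 10 μM). Stimulation with 0.1 μg/ml E. coli 0111:B4 LPS for 16 h; TNF-α measured by ELISA (A450) in 25-fold diluted supernatant.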

In a further assay the target is T1, ACK (Homo sapiens, UniProt Q07912).
T1 construct: screened for activity against several kinases in Jurkat cells; endogenous in cells; host or cells: Jurkat cell lysate
In words: Probe-based (AX9989) kinase profiling in Jurkat lysate: ACK. Type of assay: binding. As to conditions: read-out: Kinase inhibition % at indicated screening concentration: ACK; for inhibition at 0.1 µM: screening concentration 0.1 μM; for inhibition at 1 µM: screening concentration 1.0 μM. The procedure, abridged: (§1)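 Percent inhibition was derived from reduced LC/MS fragment intensities of probe-labeled peptides relative to compound-free controls. Before labeling with 5 μM AX9989, Mn2+-supplemented (20 mM) Jurkat lysate was exposed to compound for 15 min at room temperature.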

For another assay, the system named is ABL or ARG. In words: Probe-based (AX9989) kinase profiling in Jurkat lysate: ABL or ARG. Type of assay: binding. The procedure, abridged:
as §1

In another assay the target is T2, JAK1 (Homo sapiens, UniProt P23458).
T2 construct: screened for activity against several kinases in Jurkat cells; endogenous in cells; host or cells: Jurkat cell lysate
In words: Probe-based (AX9989) kinase profiling in Jurkat lysate: JAK1. Type of assay: binding. To be noted: read-out: Kinase inhibition % at indicated screening concentration: JAK1; for inhibition at 0.1 µM: screening concentration 0.1 μM; for inhibition at 1 µM: screening concentration 1.0 μM. The procedure, abridged:
as §1

The target of assay [1] is T3, BRD4 bromodomain domain I [BRD4(1)] (Homo sapiens, UniProt O60885).
T3 construct: BRD4 bromodomain domain I [BRD4(1)]; purchased Cayman Chemicals
Description: BRD4 bromodomain domain 1 inhibition assay (TR-FRET). Type of assay: binding. To be noted: screening concentration 10 μM. An outline of the steps:
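0.5% DMSO, in triplicate, using Cayman BRD4(1) TR-FRET protocol with slight modification. 670/620 nm ratio normalized to 10 μM JQ1, with DMSO control set as 0% inhibition.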

The next assay concerns AurB or AurC. In words: Probe-based (AX9989) kinase profiling in Jurkat lysate: AurB or AurC. Type of assay: binding. The procedure, abridged:
as §1

The mark [2] stands for this setting: screening concentration 10.0 μM.

T1 sequence (Q07912 whole entry): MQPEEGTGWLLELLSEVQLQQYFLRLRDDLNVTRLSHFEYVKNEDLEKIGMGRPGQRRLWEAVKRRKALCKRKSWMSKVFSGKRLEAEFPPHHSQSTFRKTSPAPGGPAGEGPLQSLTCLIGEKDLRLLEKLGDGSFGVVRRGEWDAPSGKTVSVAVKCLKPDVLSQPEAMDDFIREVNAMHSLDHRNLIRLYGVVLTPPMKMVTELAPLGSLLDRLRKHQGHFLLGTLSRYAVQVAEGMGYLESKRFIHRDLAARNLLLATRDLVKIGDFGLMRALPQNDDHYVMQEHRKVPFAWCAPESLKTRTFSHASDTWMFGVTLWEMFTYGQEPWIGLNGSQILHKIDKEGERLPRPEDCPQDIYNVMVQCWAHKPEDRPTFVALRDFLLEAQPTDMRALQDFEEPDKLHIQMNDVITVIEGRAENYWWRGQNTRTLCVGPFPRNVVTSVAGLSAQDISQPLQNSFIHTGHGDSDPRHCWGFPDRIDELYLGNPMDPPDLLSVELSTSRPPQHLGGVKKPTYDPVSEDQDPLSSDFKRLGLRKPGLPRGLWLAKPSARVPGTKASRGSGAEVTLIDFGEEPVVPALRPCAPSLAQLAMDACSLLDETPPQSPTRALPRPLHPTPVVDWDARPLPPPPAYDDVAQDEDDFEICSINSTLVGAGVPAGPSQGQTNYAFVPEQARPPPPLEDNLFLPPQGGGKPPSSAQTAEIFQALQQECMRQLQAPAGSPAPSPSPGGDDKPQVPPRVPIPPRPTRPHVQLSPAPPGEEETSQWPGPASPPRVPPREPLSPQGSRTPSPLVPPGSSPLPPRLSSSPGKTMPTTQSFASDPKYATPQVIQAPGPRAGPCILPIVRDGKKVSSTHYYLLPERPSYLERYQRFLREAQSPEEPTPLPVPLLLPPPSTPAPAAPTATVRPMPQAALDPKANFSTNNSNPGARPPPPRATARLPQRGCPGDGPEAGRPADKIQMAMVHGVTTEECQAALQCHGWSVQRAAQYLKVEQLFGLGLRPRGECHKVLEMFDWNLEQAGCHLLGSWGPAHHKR
T2 sequence (P23458 whole entry): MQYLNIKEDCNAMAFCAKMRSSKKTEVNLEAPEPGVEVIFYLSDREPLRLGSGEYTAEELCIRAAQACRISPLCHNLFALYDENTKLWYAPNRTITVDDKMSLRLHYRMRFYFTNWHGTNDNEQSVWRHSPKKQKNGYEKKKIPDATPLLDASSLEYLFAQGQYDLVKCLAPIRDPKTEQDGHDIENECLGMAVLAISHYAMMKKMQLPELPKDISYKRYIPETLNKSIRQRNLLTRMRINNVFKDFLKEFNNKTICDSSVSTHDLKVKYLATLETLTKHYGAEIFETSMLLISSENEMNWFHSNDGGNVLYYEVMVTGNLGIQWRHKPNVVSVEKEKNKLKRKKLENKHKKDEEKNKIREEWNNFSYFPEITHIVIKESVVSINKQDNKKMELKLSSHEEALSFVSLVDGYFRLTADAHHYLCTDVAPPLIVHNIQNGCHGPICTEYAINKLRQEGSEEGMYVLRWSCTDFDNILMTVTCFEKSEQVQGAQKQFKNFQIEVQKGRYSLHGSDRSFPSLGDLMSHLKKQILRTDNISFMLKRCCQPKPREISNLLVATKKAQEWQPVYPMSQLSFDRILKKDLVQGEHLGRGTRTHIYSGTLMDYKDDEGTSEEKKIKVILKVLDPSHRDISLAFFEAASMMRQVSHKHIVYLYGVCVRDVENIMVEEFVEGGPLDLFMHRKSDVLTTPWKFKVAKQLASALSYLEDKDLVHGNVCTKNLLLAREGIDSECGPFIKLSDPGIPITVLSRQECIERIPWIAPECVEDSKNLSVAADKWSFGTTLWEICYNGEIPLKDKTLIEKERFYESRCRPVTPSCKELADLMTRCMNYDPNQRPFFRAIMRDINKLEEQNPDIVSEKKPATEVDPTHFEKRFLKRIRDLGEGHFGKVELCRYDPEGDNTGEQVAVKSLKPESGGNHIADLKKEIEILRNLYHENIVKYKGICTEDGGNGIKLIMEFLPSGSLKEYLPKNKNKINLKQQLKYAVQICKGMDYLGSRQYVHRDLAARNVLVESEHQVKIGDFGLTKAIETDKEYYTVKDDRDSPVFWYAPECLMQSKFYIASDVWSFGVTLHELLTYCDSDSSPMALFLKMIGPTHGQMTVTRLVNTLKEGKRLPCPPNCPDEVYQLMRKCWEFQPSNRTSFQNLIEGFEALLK

On to `CCOc1cc(C(=O)NCCN(CC)CC)ccc1Nc1cc2c(cn1)N(C)C(=O)c1ccccc1N2C` [Compound 103], for which the EC50 with human PBMCs is 0.62 ± 0.04 µM. In addition, the inhibition at 0.1 µM at ACK and at JAK1 was at most 35% in each case. Besides, in the assay on ABL or ARG (screening concentration 0.1 μM), the “Kinase inhibition % at indicated screening concentration: ABL or ARG” value (from here on “Kinase inhibition % … ABL or ARG”) is “E (E is ≦35%)”. In assay [1], the inhibition at 10 µM is 70 to 85%. Besides, in the assay on AurB or AurC (screening concentration 0.1 μM), the “Kinase inhibition % at indicated screening concentration: AurB or AurC” value (“Kinase inhibition % … AurB or AurC” below) is on record as “E (E is ≦35%)”.

On to `CCOc1cc(C(=O)NCCN2CCCC2)ccc1Nc1cc2c(cn1)N(C)C(=O)c1ccccc1N2C` [Compound 105], for which the EC50 in the assay with human PBMCs is 1.1 µM. The inhibition at 1 µM at ACK and at JAK1 was at most 35% throughout. Besides, the “Kinase inhibition % … ABL or ARG” value in the assay on ABL or ARG (screening concentration 1.0 μM) is “E (E is ≦35%)”. The inhibition at 10 µM in assay [1] lay in the range of 70 to 85%. Besides, the “Kinase inhibition % … AurB or AurC” value in the assay on AurB or AurC (screening concentration 1.0 μM) is on record as “E (E is ≦35%)”.

As to `Cc1cc(CN2CCCC2)ccc1Nc1cc2c(cn1)N(C)C(=O)c1ccccc1N2C` [Compound 106, 5,11-dimethyl-3-(2-methyl-4-(pyrrolidin-1-ylmethyl)phenylamino)-5H-benzo[e]pyrido[3,4-b][1,4]diazepin-10(11H)-one], the EC50 in the assay with human PBMCs was found to be 2.84 µM. Also, the inhibition at 1 µM at ACK and on JAK1 was at most 35% throughout. Also, the “Kinase inhibition % … ABL or ARG” value with ABL or ARG (screening concentration 1.0 μM) is “E (E is ≦35%)”. Moreover, the inhibition at 10 µM in assay [1] is under 70%. Besides, the “Kinase inhibition % … AurB or AurC” value with AurB or AurC (screening concentration 1.0 μM) is given as “E (E is ≦35%)”.

On to `CCOc1cc(C(=O)NCCc2ccncc2)ccc1Nc1cc2c(cn1)N(C)C(=O)c1ccccc1N2C` [Compound 107], for which the EC50 in the assay on human PBMCs turned out to be 1.31 µM. Further, the inhibition at 1 µM at ACK and at JAK1 was at most 35% throughout. Further, the “Kinase inhibition % … ABL or ARG” value in the assay with ABL or ARG (screening concentration 1.0 μM) is listed as “E (E is ≦35%)”. Also, the inhibition at 10 µM in assay [1] is under 70%. For the same compound, in the assay on AurB or AurC (screening concentration 1.0 μM), the “Kinase inhibition % … AurB or AurC” value is recorded as “E (E is ≦35%)”.

Regarding `CCOc1cc(C(=O)N2CCN(CC)CC2)ccc1Nc1cc2c(cn1)N(C)C(=O)c1ccccc1N2C` [Compound 108], the EC50 in the assay on human PBMCs worked out at 0.7 µM. Besides, the inhibition at 1 µM on ACK and on JAK1 was at most 35% each time. In addition, in the assay on ABL or ARG (screening concentration 1.0 μM), the “Kinase inhibition % … ABL or ARG” value is “E (E is ≦35%)”. The inhibition at 10 µM in assay [1] is 70 to 85%. For the same compound, in the assay with AurB or AurC (screening concentration 1.0 μM), the “Kinase inhibition % … AurB or AurC” value is reported as “E (E is ≦35%)”.

Consider `CN1C(=O)c2ccccc2N(C)c2cc(Nc3ccc(C(=O)N4CC[C@@H](N(C)C)C4)cc3F)ncc21` [Compound 110], for which, in the assay on human PBMCs, the EC50 was found to be 1.76 ± 0.5 µM. Besides, the inhibition at 10 µM at ACK (setting [2]) is at most 35%; on JAK1 (setting [2]), at most 35%; in assay [1], under 70%. Also, the “Kinase inhibition % … ABL or ARG” value in the assay on ABL or ARG (setting [2]) was “E (E is ≦35%)”. In addition, in the assay on AurB or AurC (setting [2]), the “Kinase inhibition % … AurB or AurC” value is reported as “C (C is >50% to ≦75%)”.

In the case of `CCOc1cc(C(=O)N2CCOCC2)ccc1Nc1cc2c(cn1)N(C)C(=O)c1ccccc1N2C` [Compound 111], the EC50 in the assay on human PBMCs stood at 0.54 µM. The inhibition at 1 µM at ACK and at JAK1 was at most 35% each time. In addition, in the assay with ABL or ARG (screening concentration 1.0 μM), the “Kinase inhibition % … ABL or ARG” value is listed as “E (E is ≦35%)”. In addition, the inhibition at 10 µM in assay [1] is over 85%. In the assay on AurB or AurC (screening concentration 1.0 μM), the “Kinase inhibition % … AurB or AurC” value is listed as “E (E is ≦35%)”.

Consider `CCOc1cc(C(=O)N2CC(N3CCCCC3)C2)ccc1Nc1cc2c(cn1)N(C)C(=O)c1ccccc1N2C` [Compound 114], for which the EC50 with human PBMCs amounted to 0.53 µM. The inhibition at 0.1 µM on ACK and on JAK1 was at most 35% each time. Besides, in the assay with ABL or ARG (screening concentration 0.1 μM), the “Kinase inhibition % … ABL or ARG” value is “E (E is ≦35%)”. The inhibition at 10 µM in assay [1] was over 85%. Moreover, the “Kinase inhibition % … AurB or AurC” value in the assay on AurB or AurC (screening concentration 0.1 μM) is given as “E (E is ≦35%)”.
